Experimental data as given in US20250145632A1, “Pyrimidine Heterocyclic Compound, Preparation Method Thereof and use Thereof in Medicine” (INSILICO MEDICINE IP LIMITED, priority 2021, published 2025).

Legend:
CDK12/Cyclin K = CDK12/Cyclin K (Homo sapiens (Human), UniProt Q9NYV4); assay: In-vitro inhibition of CDK12/Cyclin K kinase activity (Caliper mobility shift); type: biochemical; conditions: for Ki: Ki calculated from IC50 under Km ATP condition (Cheng and Prusoff); for Selectivity (CDK12 Ki/CDK7 KD): Ki off-target / KD CDK7 (SPR)
Chain of CDK12/Cyclin K (Q9NYV4 whole entry): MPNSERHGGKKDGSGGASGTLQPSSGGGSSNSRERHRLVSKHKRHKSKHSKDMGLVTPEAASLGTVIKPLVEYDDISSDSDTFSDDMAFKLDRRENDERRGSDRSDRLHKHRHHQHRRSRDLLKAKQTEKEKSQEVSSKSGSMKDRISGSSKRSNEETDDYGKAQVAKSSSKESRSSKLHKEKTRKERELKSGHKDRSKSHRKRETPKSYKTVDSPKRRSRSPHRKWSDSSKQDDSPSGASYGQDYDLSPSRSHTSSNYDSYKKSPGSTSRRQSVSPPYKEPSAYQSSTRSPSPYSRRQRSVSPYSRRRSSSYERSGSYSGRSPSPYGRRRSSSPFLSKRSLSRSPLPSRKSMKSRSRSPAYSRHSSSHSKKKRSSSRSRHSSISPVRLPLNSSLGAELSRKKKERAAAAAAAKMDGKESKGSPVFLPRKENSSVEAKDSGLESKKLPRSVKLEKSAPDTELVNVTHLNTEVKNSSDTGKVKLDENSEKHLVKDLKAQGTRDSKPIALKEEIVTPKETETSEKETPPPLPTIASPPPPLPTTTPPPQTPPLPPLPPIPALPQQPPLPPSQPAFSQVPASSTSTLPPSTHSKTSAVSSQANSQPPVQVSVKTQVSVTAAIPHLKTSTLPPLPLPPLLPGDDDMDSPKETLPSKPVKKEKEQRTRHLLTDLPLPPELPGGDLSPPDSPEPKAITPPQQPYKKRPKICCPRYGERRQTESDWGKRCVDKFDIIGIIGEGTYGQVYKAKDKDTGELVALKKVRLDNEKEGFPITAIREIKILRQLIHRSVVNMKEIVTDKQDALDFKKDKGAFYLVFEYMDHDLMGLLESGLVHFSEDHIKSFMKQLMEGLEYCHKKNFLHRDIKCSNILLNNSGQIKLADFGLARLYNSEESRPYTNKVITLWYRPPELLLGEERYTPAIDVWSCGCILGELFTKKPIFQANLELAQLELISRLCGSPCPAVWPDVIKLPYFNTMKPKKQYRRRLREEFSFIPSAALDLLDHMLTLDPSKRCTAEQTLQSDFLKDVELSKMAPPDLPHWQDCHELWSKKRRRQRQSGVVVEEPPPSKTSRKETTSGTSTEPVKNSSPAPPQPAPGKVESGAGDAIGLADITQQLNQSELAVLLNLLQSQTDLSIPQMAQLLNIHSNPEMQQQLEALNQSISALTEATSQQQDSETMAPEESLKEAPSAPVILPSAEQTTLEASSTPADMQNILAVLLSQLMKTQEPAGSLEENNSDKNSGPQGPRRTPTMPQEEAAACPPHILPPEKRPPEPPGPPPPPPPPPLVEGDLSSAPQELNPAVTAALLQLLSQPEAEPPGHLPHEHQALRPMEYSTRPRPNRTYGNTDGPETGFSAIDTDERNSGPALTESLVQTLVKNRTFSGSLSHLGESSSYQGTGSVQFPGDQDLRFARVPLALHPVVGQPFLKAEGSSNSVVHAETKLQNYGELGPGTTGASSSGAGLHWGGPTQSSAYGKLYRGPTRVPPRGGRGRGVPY
Chain of CDK12/Cyclin K (O75909 whole entry partner): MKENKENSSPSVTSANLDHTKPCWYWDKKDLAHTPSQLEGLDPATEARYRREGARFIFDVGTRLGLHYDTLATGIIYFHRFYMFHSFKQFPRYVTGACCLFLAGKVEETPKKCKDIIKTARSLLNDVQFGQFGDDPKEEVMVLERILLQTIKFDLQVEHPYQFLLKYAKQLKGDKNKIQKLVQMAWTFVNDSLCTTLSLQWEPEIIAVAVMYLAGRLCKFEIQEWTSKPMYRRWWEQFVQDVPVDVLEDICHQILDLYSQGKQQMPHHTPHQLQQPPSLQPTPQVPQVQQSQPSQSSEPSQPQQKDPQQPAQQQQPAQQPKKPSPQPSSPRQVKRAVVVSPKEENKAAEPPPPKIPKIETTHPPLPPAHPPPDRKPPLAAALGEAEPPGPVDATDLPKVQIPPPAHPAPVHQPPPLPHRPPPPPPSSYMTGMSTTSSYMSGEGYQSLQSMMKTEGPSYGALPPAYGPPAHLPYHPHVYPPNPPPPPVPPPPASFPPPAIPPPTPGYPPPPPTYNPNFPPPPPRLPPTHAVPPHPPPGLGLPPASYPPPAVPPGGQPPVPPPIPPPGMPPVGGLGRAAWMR
Source text: (§1) CDK2/Cyclin E1 was purchased from Biortus; batch No.: 20150228-BP469/477/691; CDK7/Cyclin H/MAT1 was purchased from Biortus; Batch No.: 20190326-BP487/492/479; CDK9/Cyclin T1 was purchased from Biortus; Batch No.: 20200727-BP488/792/691; CDK12/Cyclin K was purchased from Biortus; Batch No.: 20200526-BP1642/1648/691; MES was purchased from BiRoYee (Baoruyi); Batch No.: 67GR9637; BSA was purchased from Aladdin; Batch No.: H1601024; ATP was purchased from VWR; Batch No.: 97061-226; EDTA was purchased from Sinopharm Group; Batch No.: 20200521; and staurosporine was purchased from Selleckchem; Batch No.: S1421.
(§2) This experiment was used for determining the inhibition of the activities of CDK2, CDK7, CDK9 and CDK12 kinases by the compound. The kinase reaction carried out by the present invention was measured in a 384-well plate, the final measured volume was 16 μl, and the reaction temperature was 27° C. The concentrations of the kinases were determined by optimization experiment. The specific experimental process was as follows: • 1) preparation of kinase solutions: • kinase solution (CDK2/Cyclin E1): the kinase was diluted in a assay buffer solution ((20 mM MES pH 6.75, 0.01% Tween 20, 0.05 mg/mL BSA, 2 mM MgCl2) to obtain an enzyme solution with the corresponding 2.4× concentration; • kinase solution (CDK7/Cyclin H/MAT1): the kinase was diluted in the assay buffer solution (20 mM MES pH 6.75, 0.01% Tween 20, 0.05 mg/mL BSA, 6 mM MgCl2) to obtain an enzyme solution with the corresponding 2.4× concentration; • kinase solution (CDK9/Cyclin T1): the kinase was diluted in the assay buffer solution (20 mM MES pH 6.75, 0.01% Tween 20, 0.05 mg/mL BSA, 10 mM MgCl2) to obtain an enzyme solution with the corresponding 2.4× concentration; and • kinase solution (CDK12/Cyclin K): the kinase was diluted in a assay buffer solution (80 mM MES pH 6.5, 0.01% Tween 20, 0.05 mg/mL BSA, 10 mM MgCl2) to obtain an enzyme solution with the corresponding 2.4× concentration. • 2) Preparation of compound solutions: the compound was dissolved in dimethyl sulfoxide (DMSO) at a concentration of 10 mM, the compound was diluted to 10 concentration gradients of 25 nM to 500 μM with DMSO during use, diluted in ultrapure water by 8.3 times respectively to obtain compound solutions with 6× concentration. • 3) Preparation of a polypeptide substrate and ATP solution: the polypeptide substrate and ATP were diluted in the assay buffer solution to obtain a polypeptide substrate and ATP mixed solution with 2.4× concentration. • 4) Kinase reaction process: • 2 ul of the test compound solution, 5 ul of the polypeptide substrate and ATP mixed solution and 5 ul of an enzyme solution were mixed and incubated at 27° C. (CDK2 was incubated for 60 min, CDK7 was incubated for 70 min, CDK9 was incubated for 70 min, and CDK12 was incubated for 280 min), and then 4 ul of EDTA with a concentration of 150 mM was added into each sample to terminate the reaction. […] The data was calculated with GraphPad Prism version 9.0, and an IC50 value was obtained by adjusting a nonlinear regression model using a dose reaction curve. The calculation formula was Y=Bottom+(Top-Bottom)/(1+10^((LogIC50−X)*HillSlope)). X represents a log value (log of dose or concentration); Y represents an inhibition rate (% inhibition, increasing as x increases) which was increased along with the increase of X; Top represents maximum response; Bottom represents baseline response; and HillSlope represents a curve slope.

CDK2/Cyclin E1 = CDK2/Cyclin E1 (Homo sapiens (Human), UniProt P24941); assay: In-vitro inhibition of CDK2/Cyclin E1 kinase activity (Caliper mobility shift); type: biochemical; conditions: for Ki: Ki calculated from IC50 under Km ATP condition (Cheng and Prusoff); for Selectivity (CDK2 Ki/CDK7 KD): Ki off-target / KD CDK7 (SPR)
Source text: as §1, §2

CDK7/Cyclin H/MAT1 = CDK7/Cyclin H/MAT1 (Homo sapiens (Human), UniProt P50613); assay: In-vitro inhibition of CDK7/Cyclin H/MAT1 kinase activity (Caliper mobility shift); type: biochemical; conditions: ATP 50 μM, 70 min, 27° C.; read-out: CDK7/CyclinH/MAT1 IC50 assay
Chain of CDK7/Cyclin H/MAT1 (P50613 whole entry): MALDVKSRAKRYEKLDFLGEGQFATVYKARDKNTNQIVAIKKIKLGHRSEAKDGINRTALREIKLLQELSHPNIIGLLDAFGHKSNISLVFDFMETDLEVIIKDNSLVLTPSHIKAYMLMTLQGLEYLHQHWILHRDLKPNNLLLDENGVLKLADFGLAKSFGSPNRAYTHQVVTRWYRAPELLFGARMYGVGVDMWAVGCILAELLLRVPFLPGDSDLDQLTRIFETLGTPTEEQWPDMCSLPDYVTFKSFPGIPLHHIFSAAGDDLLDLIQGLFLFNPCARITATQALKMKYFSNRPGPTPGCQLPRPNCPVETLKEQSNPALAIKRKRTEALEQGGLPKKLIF
Chain of CDK7/Cyclin H/MAT1 (P51946 whole entry partner): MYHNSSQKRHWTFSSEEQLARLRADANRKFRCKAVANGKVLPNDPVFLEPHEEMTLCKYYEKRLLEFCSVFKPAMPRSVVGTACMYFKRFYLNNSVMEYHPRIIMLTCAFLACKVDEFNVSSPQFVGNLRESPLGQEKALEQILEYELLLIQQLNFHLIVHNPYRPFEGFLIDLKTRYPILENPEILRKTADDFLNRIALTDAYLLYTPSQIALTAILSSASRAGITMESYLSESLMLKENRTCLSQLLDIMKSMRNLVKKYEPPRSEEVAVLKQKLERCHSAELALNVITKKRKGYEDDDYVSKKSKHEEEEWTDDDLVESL
Chain of CDK7/Cyclin H/MAT1 (P51948 whole entry partner): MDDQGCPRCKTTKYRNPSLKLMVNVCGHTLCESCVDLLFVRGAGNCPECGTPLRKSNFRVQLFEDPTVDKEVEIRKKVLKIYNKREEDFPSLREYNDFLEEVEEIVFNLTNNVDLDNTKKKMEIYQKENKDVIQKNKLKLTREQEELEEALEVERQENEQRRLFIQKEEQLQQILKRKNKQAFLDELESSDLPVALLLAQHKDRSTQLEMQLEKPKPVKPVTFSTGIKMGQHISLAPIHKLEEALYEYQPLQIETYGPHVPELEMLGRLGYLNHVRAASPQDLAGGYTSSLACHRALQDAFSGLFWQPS
Source text: as §1
This experiment was used for determining the inhibition of the activities of CDK2, CDK7, CDK9 and CDK12 kinases by the compound. The kinase reaction carried out by the present invention was measured in a 384-well plate, the final measured volume was 16 μl, and the reaction temperature was 27° C. The concentrations of the kinases were determined by optimization experiment. […] The data was calculated with GraphPad Prism version 9.0, and an IC50 value was obtained by adjusting a nonlinear regression model using a dose reaction curve. […]

CDK9/Cyclin T1 = CDK9/Cyclin T1 (Homo sapiens (Human), UniProt P50750); assay: In-vitro inhibition of CDK9/Cyclin T1 kinase activity (Caliper mobility shift); type: biochemical; conditions: for Ki: Ki calculated from IC50 under Km ATP condition (Cheng and Prusoff); for Selectivity (CDK9 Ki/CDK7 KD): Ki off-target / KD CDK7 (SPR)
Chain of CDK9/Cyclin T1 (P50750 whole entry): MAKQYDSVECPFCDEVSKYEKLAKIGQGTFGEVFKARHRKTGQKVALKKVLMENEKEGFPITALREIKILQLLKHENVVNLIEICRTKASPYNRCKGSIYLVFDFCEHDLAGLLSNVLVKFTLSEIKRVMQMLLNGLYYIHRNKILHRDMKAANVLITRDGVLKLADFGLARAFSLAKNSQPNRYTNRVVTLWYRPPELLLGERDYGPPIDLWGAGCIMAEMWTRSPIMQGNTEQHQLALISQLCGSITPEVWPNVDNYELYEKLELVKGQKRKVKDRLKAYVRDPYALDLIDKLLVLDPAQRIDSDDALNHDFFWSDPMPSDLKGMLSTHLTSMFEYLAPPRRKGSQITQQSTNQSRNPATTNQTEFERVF
Chain of CDK9/Cyclin T1 (O60563 whole entry partner): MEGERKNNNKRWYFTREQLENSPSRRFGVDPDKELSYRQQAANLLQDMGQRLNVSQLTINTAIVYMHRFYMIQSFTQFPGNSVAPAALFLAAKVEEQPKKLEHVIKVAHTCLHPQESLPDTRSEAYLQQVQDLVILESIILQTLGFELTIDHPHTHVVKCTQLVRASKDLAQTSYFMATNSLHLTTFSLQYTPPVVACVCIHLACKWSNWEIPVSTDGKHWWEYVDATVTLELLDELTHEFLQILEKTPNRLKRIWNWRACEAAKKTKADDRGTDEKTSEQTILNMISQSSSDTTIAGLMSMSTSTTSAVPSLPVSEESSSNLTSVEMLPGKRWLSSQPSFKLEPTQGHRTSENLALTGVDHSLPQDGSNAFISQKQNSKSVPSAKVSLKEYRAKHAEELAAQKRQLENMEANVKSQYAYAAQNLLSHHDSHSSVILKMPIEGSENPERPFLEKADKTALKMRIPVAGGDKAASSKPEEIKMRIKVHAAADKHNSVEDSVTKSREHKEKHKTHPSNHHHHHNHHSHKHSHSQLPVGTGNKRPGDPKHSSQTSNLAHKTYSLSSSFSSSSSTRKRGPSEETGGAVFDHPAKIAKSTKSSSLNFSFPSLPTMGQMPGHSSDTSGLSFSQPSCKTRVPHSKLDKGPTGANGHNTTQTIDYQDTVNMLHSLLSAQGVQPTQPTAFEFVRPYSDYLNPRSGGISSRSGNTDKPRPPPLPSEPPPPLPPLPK
Source text: as §1, §2

[1] = system: HCC70 human breast ductal cancer cells; assay: HCC70 tumor cell proliferation inhibition (CellTiter-Glo); type: cell-based; conditions: 3 d culture
Description: HCC70 was purchased from ATCC; article No.: CRL-2315; RPMI1640 was purchased from Gibco; article No.: 11875-093; Pancreatin (including EDTA) was purchased from Gibco; article No.: 25200-072; FBS was purchased from Gibco; article No.: 10099-141C; CellTiter-Glo was purchased from Promega; article No.: G7573; DMSO was purchased from VWR AMRESCO; article No.: 0231-500ML; Staurosporine was purchased from Selleck; article No.: S1421; a cell counter was purchased from CHEMOMETEC; model: NC-200; and a microplate reader was purchased from PerkinElmer; Model: Envison.
(§3) HCC70 was human breast ductal cancer cells cultured in an RPMI-1640 culture medium containing 10% FBS. Cells in logarithmic phase were taken, and the cells were subjected to digesting, collecting and counting with pancreatin-EDTA, 2000 HCC70 cells/well were inoculated in a 384-well cell plate, and were cultured in 5% CO2 overnight. A 1000× compound stock solution with 3.16 times of gradient concentration was prepared with DMSO, and was diluted 100 times to 10× compound stock solution with a culture medium, and 10× compound stock solution was added into each cell culture well on the next day after cell inoculation, wherein the final concentration was 1×, and the DMSO content was 0.1%. The cell group was treated with DMSO as an experimental control (control), and the cell group was treated with 5 μM of Staurosporine as a blank control (blank).

[2] = system: OVCAR-3 human ovarian adenocarcinoma cells; assay: OVCAR-3 tumor cell proliferation inhibition (CellTiter-Glo); type: cell-based; conditions: 3 d culture
Description: OVCAR-3 was purchased from ATCC; article No.: HTB-161; RPMI1640 was purchased from Gibco; article No.: 11875-093; Pancreatin (including EDTA) was purchased from Gibco; article No.: 25200-072; FBS was purchased from Gibco; Article No.: 10091-148; CellTiter-Glo was purchased from Promega; article No.: G7573; Bovine insulin was purchased from absin; article No.: abs9169; DMSO was purchased from VWR AMRESCO; article No.: 0231-500ML; Staurosporine was purchased from Selleck; article No.: S1421; a cell counter was purchased from CHEMOMETEC; model: NC-200; and a microplate reader was purchased from PerkinElmer; Model: Envison.
as §3, with “OVCAR-3” for “HCC70”, “ovarian adenocarcinoma” for “breast ductal cancer”, “20% FBS and 0.01 mg/mL of Bovine insulin.” for “10% FBS.”

[3] = In-vivo pharmacokinetic experiment in male beagles; set-up: species or system dog; conditions: beagle
Description: Experimental method and conditions: male beagles with weight of 8-11 kg were purchased from Jiangsu Marshall Biotechnology Co., Ltd. The to-be-tested compound was administered to 3 dogs at 0.2 mg/kg or 1.0 mg/kg (solvent: 2% DMSO+10% Kolliphor HS 15+88% (6.818% of hydroxypropyl-beta-cyclodextrin aqueous solution), 0.2 mg/mL or 1.0 mg/mL) by intravenous injection, and administered to 3 dogs at 2 mg/kg (solvent: 5% DMSO+95% (10% hydroxypropyl-beta-cyclodextrin salt aqueous solution, 0.4 mg/mL) by oral intragastric administration. Head vein blood sampling was carried out 5 min, 15 min, 30 min, 1 h, 2 h, 4 h, 8 h and 24 h after the administration, and 500 μL of each sample was collected. After collection, the samples were placed on ice, and plasma was centrifugally separated within 15 min for testing. The concentration of the medicine in the plasma was detected by liquid chromatography-tandem mass spectrometry (LC/MS/MS), and pharmacokinetic parameters were calculated with Phoenix WinNonlin software when the concentration was measured.

[4] = intravenous injection 0.2 mg/kg

Ki (CDK12/Cyclin K)	Ki (CDK2/Cyclin E1)	IC50 (CDK7/Cyclin H/MAT1)	Ki (CDK9/Cyclin T1)	Selectivity (CDK12 Ki/CDK7 KD) (CDK12/Cyclin K)	Selectivity (CDK2 Ki/CDK7 KD) (CDK2/Cyclin E1)	Selectivity (CDK9 Ki/CDK7 KD) (CDK9/Cyclin T1)	IC50 [2]	AUC0~inf [3, 4]	CL [3, 4]	T1/2 [3, 4]	Vss [3, 4]	AUC0~inf ([3]; oral administration 2 mg/kg)	Cmax ([3]; oral administration 2 mg/kg)	F(%) ([3]; oral administration 2 mg/kg)	T1/2 ([3]; oral administration 2 mg/kg)	Compound	IC50 [1]
62.6 nM	154 nM	11 nM	52.2 nM	–	–	–	–	–	–	–	–	–	–	–	–	O=C1NCCOCCN2CC[C@@H](C2)Nc2ncc(C(F)(F)F)c(n2)-c2c[nH]c3cc1ccc23 [Compound Z1, (4^3S)-2^5-(trifluoromethyl)-1^1H-7-oxa-3,10-diaza-1(3,6)-indola-2(4,2)-pyrimidina-4(3,1)-pyrrolidinacycloundecaphan-11-one]	–
26.1 nM	25.6 nM	–	95.5 nM	(CDK12 Ki/CDK7 KD): 163	(CDK2 Ki/CDK7 KD): 160	(CDK9 Ki/CDK7 KD): 597	–	–	–	–	–	–	–	–	–	CP(C)(=O)c1c2ccc3c(c[nH]c13)-c1nc(ncc1C(F)(F)F)N[C@H]1CC[C@@H](C1)NCCCCNC2=O [Compound Z5]	42.7 nM
61.4 nM	33.4 nM	–	217 nM	(CDK12 Ki/CDK7 KD): 61.35	(CDK2 Ki/CDK7 KD): 566	(CDK9 Ki/CDK7 KD): 3675	–	–	–	–	–	–	–	–	–	CP(C)(=O)c1c2ccc3c(c[nH]c13)-c1nc(ncc1C(F)(F)F)N[C@H]1CC[C@@H](C1)NCCOCCNC2=O [Compound Z7, (4^1S,4^3S)-1^7-(dimethylphosphoryl)-2^5-(trifluoromethyl)-1H-8-oxa-3,5,11-triaza-1(3,6)-indola-2(4,2)-pyrimidina-4(1,3)-cyclopentanacyclododecaphan-12-one]	41.1 nM
–	–	–	258 nM	–	–	–	254 nM	3097 ng·h/mL	1.23 mL/min/kg	3.42 h	0.24 L/kg	45620 ng·h/mL	6623 ng/mL	147%	4.44 h	CN1CC(F)(F)CCN(C)[C@H]2CC[C@@H](C2)Nc2ncc(C(F)(F)F)c(n2)-c2c[nH]c3c(P(C)(C)=O)c(ccc23)C1=O [Compound Z65, (4^1S,43S)-1^7-(dimethylphosphoryl)-8,8-difluoro-5,10-dimethyl-2^5-(trifluoromethyl)-1^1H-3,5,10-triaza-1(3,6)-indola-2(4,2)-pyrimidina-4(1,3)-cyclopentanacycloundecaphan-11-one]	46.9 nM
92.8 nM	23.3 nM	–	134 nM	(CDK12 Ki/CDK7 KD): 763	(CDK2 Ki/CDK7 KD): 192	(CDK9 Ki/CDK7 KD): 1103	84 nM	–	–	–	–	–	–	–	–	CN1C[C@@H](F)CCN(C)[C@H]2CC[C@@H](C2)Nc2ncc(C(F)(F)F)c(n2)-c2c[nH]c3c(P(C)(C)=O)c(ccc23)C1=O [Compound Z79, (4^1S,4^3S,8S)-1^7-(dimethylphosphoryl)-8-fluoro-5,10-dimethyl-2^5-(trifluoromethyl)-1^1H-3,5,10-triaza-1(3,6)-indola-2(4,2)-pyrimidina-4(1,3)-cyclopentanacycloundecaphan-11-one]	66.5 nM
22.7 nM	9.8 nM	4.58 nM	10.6 nM	(CDK12 Ki/CDK7 KD): 162	(CDK2 Ki/CDK7 KD): 70	(CDK9 Ki/CDK7 KD): 76	–	–	–	–	–	–	–	–	–	(4^1S, 4^3S)-2^5-(trifluoromethyl)-1^1H-3,5,10-triaza-1(3,6)-indola-2(4,2)-pyrimidina-4(1,3)-cyclopentanacycloundecaphan-11-one [Compound Z2]	207 nM
